Experiment [1] has as its target orotidine 5’-monophosphate decarboxylase (MtOMPDC) (Methanothermobacter thermautotrophicus, UniProt O26232). The experiment in a line: X-ray crystal structure, […] Å. Format: biochemical.
Experiment [2] deals with orotidine 5’-monophosphate decarboxylase (MtOMPDC) (Methanothermobacter thermautotrophicus, UniProt O26232, D70G).

Data on two molecules can be found in paper PMC2697262 (Biochemistry, 2009).

orotidine 5’-monophosphate decarboxylase (MtOMPDC) (Methanothermobacter thermautotrophicus, UniProt O26232, D70G), sequence (O26232 whole entry D70G): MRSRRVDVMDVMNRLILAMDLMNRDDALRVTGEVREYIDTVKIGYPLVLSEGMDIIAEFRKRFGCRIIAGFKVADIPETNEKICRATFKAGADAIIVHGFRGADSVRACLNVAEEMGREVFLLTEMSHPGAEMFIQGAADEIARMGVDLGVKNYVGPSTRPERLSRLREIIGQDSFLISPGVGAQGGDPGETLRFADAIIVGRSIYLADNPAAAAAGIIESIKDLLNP
orotidine 5’-monophosphate decarboxylase (MtOMPDC) (Methanothermobacter thermautotrophicus, UniProt O26232), sequence (O26232 whole entry): as the sequence (O26232 whole entry D70G) above, with G70D counted along it

By Ki is commonly meant a measure of affinity in units of concentration, obtained from inhibition or displacement. Consider `O=C1CC(C(=O)O)N([C@@H]2O[C@H](COP(=O)(O)O)[C@@H](O)[C@H]2O)C(=O)N1` (stereo partly drawn) [(6R)-H2OMP], for which the Ki in experiment [1] worked out at 100 µM.

On to `O=c1[nH]c(=O)n([C@@H]2O[C@H](COP(=O)(O)O)[C@@H](O)[C@H]2O)cc1F` [FUMP], for which the “X-ray crystal structure, 1.3 Å; also H6 exchange by NMR” value in experiment [2] is “structures were obtained for D70G in the absence of ligands and complexed with UMP and FUMP”.
